Assay results reported in the supplement of paper PMC11061612.

How the values were obtained:
Assay in all cases: combination Emax (second highest fraction inhibited in the dose matrix, 72 h); higher = more inhibition; extreme values may be limits of the assay
CAL-78 (Chondrosarcoma) = system: CAL-78 (Chondrosarcoma)
In short: (§1)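 Cell lines grown in DMEM/F12 or RPMI with 10% FBS were plated in 1536-well plates and held 24 hours at 37°C, 5% CO2 before 72 hours of exposure to two-drug dose matrices, with DMSO typically at 0.2%. CellTiter-Glo 2.0 luminescence gave viability, which was converted to inhibition. Vehicle wells were set to 0 and blank wells to 1. Combination Emax is the second-highest inhibition in the matrix, and Bliss excess is the observed combination effect minus the expected EA + EB − EA·EB, where EA and EB are the single-agent effects.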

[1] = system: CFPAC-1 (Pancreatic Carcinoma)
In short: as §1

[2] = system: HCC2157 (Breast Carcinoma)
In short: as §1

[3] = system: HPAC (Pancreatic Carcinoma)
In short: as §1

IGR-1 (Melanoma) = system: IGR-1 (Melanoma)
In short: as §1

[4] = system: KM-H2 (Hodgkin's Lymphoma)
In short: as §1

[5] = system: SNU-C5 (Colorectal Carcinoma)
In short: as §1

[6] = system: SW756 (Cervical Carcinoma)
In short: as §1

[7] = system: SW780 (Bladder Carcinoma)
In short: as §1

[8] = system: DOV13 (Ovarian Carcinoma)
In short: as §1

DSH1 (Bladder Carcinoma) = system: DSH1 (Bladder Carcinoma)
In short: as §1

[9] = system: KARPAS-1106P (B-Cell Non-Hodgkin's Lymphoma)
In short: as §1

[10] = system: KARPAS-620 (Plasma Cell Myeloma)
In short: as §1

[11] = system: MDA-MB-157 (Breast Carcinoma)
In short: as §1

[12] = system: MDA-MB-231 (Breast Carcinoma)
In short: as §1

[13] = system: NCI-H1299 (Non-Small Cell Lung Carcinoma)
In short: as §1

SK-N-FI (Neuroblastoma) = system: SK-N-FI (Neuroblastoma)
In short: as §1

SN12C (Kidney Carcinoma) = system: SN12C (Kidney Carcinoma)
In short: as §1

[14] = system: SW1990 (Pancreatic Carcinoma)
In short: as §1

[15] = system: IHH-4 (Thyroid Gland Carcinoma)
In short: as §1

| SMILES | combination Emax [4] | combination Emax (CAL-78 (Chondrosarcoma)) | combination Emax [1] | combination Emax [2] | combination Emax [3] | combination Emax (IGR-1 (Melanoma)) | combination Emax [5] | combination Emax [6] | combination Emax [7] | combination Emax [8] | combination Emax (DSH1 (Bladder Carcinoma)) | combination Emax [9] | combination Emax [10] | combination Emax [11] | combination Emax [12] | combination Emax [13] | combination Emax (SK-N-FI (Neuroblastoma)) | combination Emax (SN12C (Kidney Carcinoma)) | combination Emax [14] | combination Emax [15] |
| --- | --- | --- | --- | --- | --- | --- | --- | --- | --- | --- | --- | --- | --- | --- | --- | --- | --- | --- | --- | --- |
| Cc1c2c(nn1C)CSCc1cc(n(C)n1)CSc1cc(c3ccccc3c1)OCCCc1c(C(=O)O)n(C)c3c-2c(Cl)ccc13 [AZD5991] + C1CN(CCC1(C(=O)N[C@@H](CCO)C2=CC=C(C=C2)Cl)N)C3=NC=NC4=C3C=CN4 [Capivasertib] (first compound max 1 µM, 7x7, partner max 3 µM) | 0.143 | 0.868 | 0.2 | 0.992 | 0.13 | 0.26 |  | 0.136 | 0.165 | 0.272 | 0.927 | 0.901 | 1 | 0.714 | 0.194 | 0.224 | 0.514 | 0.204 | 0.121 |  |
| Cc1c2c(nn1C)CSCc1cc(n(C)n1)CSc1cc(c3ccccc3c1)OCCCc1c(C(=O)O)n(C)c3c-2c(Cl)ccc13 [AZD5991] + Cc1cc2ncnn2cc1Nc1ncc2c(n1)n(C1CCOCC1)c(=O)n2C [AZD7648] (first compound max 1 µM, 7x7, partner max 10 µM) | 0.172 | 0.782 | 0.259 | 0.984 | 0.254 | 0.237 | 0.267 | 0.196 |  | 0.458 | 0.67 | 0.939 | 1 | 0.708 | 0.333 | 0.34 | 0.414 | 0.269 | 0.218 | 0.35 |
| C[C@@H]1COCCN1c1cc(C2([S@](C)(=N)=O)CC2)nc(-c2ccnc3[nH]ccc23)n1 [AZD6738] + O=C(c1cc(Cc2n[nH]c(=O)c3ccccc23)ccc1F)N1CCN(C(=O)C2CC2)CC1 [Olaparib] (first compound max 10 µM, 7x7, partner max 10 µM) | 0.785 | 0.616 |  | 0.907 | 0.416 | 0.452 | 0.696 | 0.228 | 0.181 | 0.915 | 0.752 | 0.672 | 0.544 | 0.85 | 0.572 | 0.666 | 0.701 | 0.249 | 0.471 | 0.773 |
| CCc1c2c(nc3ccc(O)cc13)-c1cc3c(c(=O)n1C2)COC(=O)[C@]3(O)CC [SN-38] + O=C(c1cc(Cc2n[nH]c(=O)c3ccccc23)ccc1F)N1CCN(C(=O)C2CC2)CC1 [Olaparib] (first compound max 0.3 µM, 7x7, partner max 10 µM) |  |  | 0.831 |  | 0.246 | 0.634 |  | 0.766 |  | 0.939 | 0.915 | 0.943 | 0.25 | 0.725 | 0.681 | 0.544 | 0.518 | 0.738 | 0.419 | 0.921 |

Second part, led by results:

| combination Emax [4] | SMILES | combination Emax (CAL-78 (Chondrosarcoma)) | combination Emax [1] | combination Emax [2] | combination Emax [3] | combination Emax (IGR-1 (Melanoma)) | combination Emax [5] | combination Emax [6] | combination Emax [7] | combination Emax [8] | combination Emax (DSH1 (Bladder Carcinoma)) | combination Emax [9] | combination Emax [10] | combination Emax [11] | combination Emax [12] | combination Emax [13] | combination Emax (SK-N-FI (Neuroblastoma)) | combination Emax (SN12C (Kidney Carcinoma)) | combination Emax [14] | combination Emax [15] |
| --- | --- | --- | --- | --- | --- | --- | --- | --- | --- | --- | --- | --- | --- | --- | --- | --- | --- | --- | --- | --- |
| 0.551 | COc1nnc2ccc(N3CCC(c4ccc(OCCN5CCN(C)C(=O)[C@H]5C)cc4)CC3)nn12 [AZD5153] + CN(CC[C@H](CSC1=CC=CC=C1)NC2=C(C=C(C=C2)S(=O)(=O)NC(=O)C3=CC=C(C=C3)N4CCC(CC4)[C@H](C5=CC=CC=C5C6=CC=C(C=C6)Cl)O)S(=O)(=O)C(F)(F)F)CCO [AZD4320] (first compound max 1 µM, 7x7, partner max 1 µM) | 0.8 | 0.401 | 1 | 0.713 | 0.909 | 0.569 | 0.34 | 0.369 |  |  |  |  |  |  |  |  |  |  |  |
| 0.608 | CC(=O)c1c(C)c2cnc(Nc3ccc(N4CCNCC4)cn3)nc2n(C2CCCC2)c1=O [Palbociclib] + CN(CC[C@H](CSC1=CC=CC=C1)NC2=C(C=C(C=C2)S(=O)(=O)NC(=O)C3=CC=C(C=C3)N4CCC(CC4)[C@H](C5=CC=CC=C5C6=CC=C(C=C6)Cl)O)S(=O)(=O)C(F)(F)F)CCO [AZD4320] (first compound max 10 µM, 7x7, partner max 1 µM) | 0.709 | 0.419 | 0.994 | 0.497 | 0.976 | 0.388 | 0.293 | 0.395 |  |  |  |  |  |  |  |  |  |  |  |
| 0.146 | C[C@@H](c1ccc2nccn2c1)n1nnc2ncc(-c3cnn(C)c3)nc21 [Savolitinib] + CN(CC[C@H](CSC1=CC=CC=C1)NC2=C(C=C(C=C2)S(=O)(=O)NC(=O)C3=CC=C(C=C3)N4CCC(CC4)[C@H](C5=CC=CC=C5C6=CC=C(C=C6)Cl)O)S(=O)(=O)C(F)(F)F)CCO [AZD4320] (first compound max 1 µM, 7x7, partner max 1 µM) | 0.457 | 0.143 | 0.934 | 0.343 | 0.409 | 0.173 | 0.246 | 0.393 |  |  |  |  |  |  |  |  |  |  |  |
